Each structure is given as a SMILES string. pIC50, pKi: −log10 of the molar value.

5 compounds from ChEMBL document CHEMBL1155394, “SARS-CoV 3CLpro inhibitory effects of quinone-methide triterpenes from Tripterygium regelii” (Bioorg Med Chem Lett, 2010) can be followed below.

Test [1] addresses T1, Replicase polyprotein 1ab (Severe acute respiratory syndrome-related coronavirus, UniProt P0C6X7). The test is described as follows: Inhibition of 3C-like protease of SARS coronavirus assessed as concentration of FRET peptide for 60 mins.
Test [2] deals with T1, Replicase polyprotein 1ab. As to the kind of experiment: Inhibition of 3C-like protease of SARS coronavirus assessed as concentration of FRET peptide for 60 mins by dixon plot.

Usually pIC50 stands for −log10 of the IC50, conventionally taken in molar units. For the compound `Cc1c(O)c(O)cc2c1CC=C1[C@@]2(C)CC[C@@]2(C)[C@@H]3C[C@](C)(C(=O)O)CC[C@]3(C)CC[C@]12C` [DIHYDROCELASTROL], in test [1], the pIC50 is 4.66. By pKi is commonly meant the Ki on a negative log10 scale, so that one unit is a factor of ten. On to `CC1=C(O)C(=O)C=C2C1=CC=C1[C@@]2(C)CC[C@@]2(C)[C@@H]3C[C@](C)(C(=O)O)CC[C@]3(C)CC[C@]12C` [CELASTROL], for which, in test [1], the pIC50 is 4.99. Moreover, in test [2], the pKi was 5.38.

`COc1cc(/C=C/C(=O)CC(=O)/C=C/c2ccc(O)c(OC)c2)ccc1O` [CURCUMIN]: the pIC50 in test [1] was 4.63.

Turning to `COC(=O)[C@]1(C)CC[C@]2(C)CC[C@]3(C)C4=CC=C5C(=CC(=O)C(O)=C5C)[C@]4(C)CC[C@@]3(C)[C@@H]2C1` [PRISTIMERIN], the pIC50 in test [1] is 5.26. Also, the pKi in test [2] was 5.51. For `CC1=C(O)C(=O)C=C2C1=CC=C1[C@@]2(C)CC[C@@]2(C)[C@@H]3C[C@@H](C)C(=O)C[C@]3(C)CC[C@]12C` [TINGENONE], in that order: 5.00 and 5.40.
